Measurements from ChEMBL document CHEMBL1135412, “Synthesis and in vitro evaluation of quaternary ammonium derivatives of chlorambucil and melphalan, anticancer drugs designed for the chemotherapy of chondrosarcoma” (J Med Chem, 2002).
pIC50: −log10 of the molar value.

Key:
[1] = Partition coefficient (logD) (octanol/phosphate buffer); format: physicochemical
B16 [2] = assay: In vitro cytotoxicity activity against B16 cells, by colony forming assay; format: functional, cell-based; conditions: Mus musculus
[3] = In vitro cytotoxicity in chondrosarcoma cell line (H-EMC-SS) by Alamar blue assay; format: functional; conditions: Homo sapiens
[4] = In vitro cytotoxicity in chondrosarcoma cell line (H-EMC-SS) by Hoechst 33342 DNA Fluorometric assay; format: functional; conditions: Homo sapiens
[5] = Comparative cellular uptake study performed on H-EMC-SS (chondrosarcoma cell line); format: functional, Homo sapiens
M4Beu cell line [6] = assay: In vitro cytotoxic activity against M4 Beu cells, by colony forming assay; format: functional, cell-based; conditions: Homo sapiens
M4Beu cell line [7] = assay: Comparative cellular uptake study performed on M4 Beu (melanoma cell line); format: functional, Homo sapiens
[8] = In vitro cytotoxicity activity against M4 Dau, by colony forming assay; format: functional
[9] = Alkylating activity of compound was determined by the NBP assay at 570 nm.; format: functional
[10] = Glutathione-s-transferase activity of the compound, expressed as percentage of control.; format: functional
MCF7S [11] = assay: In vitro cytotoxic activity against MCF7, by colony forming assay; format: functional, cell-based; conditions: Homo sapiens
B16 [12] = assay: In vitro cytotoxic activity against B16, by colony forming assay; format: functional, cell-based; conditions: Mus musculus
[13] = In vitro cytotoxic activity against M4 Dau, by colony forming assay; format: functional
B16 [14] = assay: In vitro cytotoxicity activity against B16, by colony forming assay; format: functional, cell-based; conditions: Mus musculus
M4Beu cell line [15] = assay: In vitro cytotoxicity activity against M4 Beu, by colony forming assay; format: functional, cell-based; conditions: Homo sapiens
MCF7S [16] = assay: In vitro cytotoxicity activity against MCF-7; format: functional, cell-based; conditions: Homo sapiens
[17] = In vitro cytotoxicity activity against M4 Dau by colony forming assay; format: functional
MCF7S [18] = assay: In vitro cytotoxicity activity against MCF7, by colony forming assay; format: functional, cell-based; conditions: Homo sapiens

Structure (SMILES) | logD ([1]; octanol/water) | pIC50 (B16 [2]) | CC50 [3] | CC50 [4] | Cellular uptake [5] | pIC50 (M4Beu cell line [6]) | Cellular uptake (M4Beu cell line [7]) | pIC50 [8] | Alkylating activity [9] | Glutathione-S-transferase activity (% of control) [10] | pIC50 (MCF7S [11]) | logD [1] | pIC50 (B16 [12]) | pIC50 [13] | pIC50 (B16 [14]) | pIC50 (M4Beu cell line [15]) | pIC50 (MCF7S [16]) | pIC50 [17] | pIC50 (MCF7S [18])
O=C(O)CCCc1ccc(N(CCCl)CCCl)cc1 [CHLORAMBUCIL] | 0.75 | 5.29 | 3500 nM | 2700 nM | 2.73 pmol/µL | 5.29 | 18.4 pmol/µL | 5.82 | 30.2 10e3·k | 60.4% | 5.77 | – | – | – | – | – | – | – | –
C[N+](C)(C)CCCNC(=O)CCCc1ccc(N(CCCl)CCCl)cc1.[I-] | – | – | 700 nM | 600 nM | 2.97 pmol/µL | 5.29 | 16.7 pmol/µL | – | 40.4 10e3·k | 55.4% | 5.92 | 0.32 | 5.07 | 5.89 | – | – | – | – | –
N[C@@H](Cc1ccc(N(CCCl)CCCl)cc1)C(=O)O [MELPHALAN] | – | – | 1600 nM | 900 nM | 2.88 pmol/µL | – | 21.9 pmol/µL | – | 10.3 10e3·k | 85.3% | – | 0.11 | – | – | 5.66 | 5.92 | 6.52 | 6.30 | –
C[N+](C)(C)CCCNC(=O)C(N)Cc1ccc(N(CCCl)CCCl)cc1.[Cl-] (centres undefined) | – | – | 1800 nM | 1200 nM | 1.54 pmol/µL | – | 6.82 pmol/µL | 5.48 | 15.7 10e3·k | 79% | – | -1.12 | – | – | 4.71 | 4.84 | – | – | 6.05
